For 31 compounds, IC50 results are on record in patent US8791102B2, “Acetanilide sphingosine-1-phosphate receptor antagonists” (Exelixis, Inc., priority 2008, dated 2014).

pIC50: −log10 of the molar value. Where only a bound is given, the exact number is not on record here.

This assay has as its target T1, human S1P1 receptors (Homo sapiens, UniProt P21453).
T1 construct: host or cells: HEK293
In words: S1P1R antagonist assay (fluorescent membrane potential dye, cAMP readout). The assay is classed as cell-based. The following applies: HEK293 cells expressing human S1P1 receptors and CNG channel; 500 nM NECA; S1P1R agonist 10 nM; 90 minutes; read-out: EC50 or IC50 value.

One may read the pIC50 as the IC50 on a negative log10 scale, so that one unit is a factor of ten.

T1 sequence (P21453 whole entry): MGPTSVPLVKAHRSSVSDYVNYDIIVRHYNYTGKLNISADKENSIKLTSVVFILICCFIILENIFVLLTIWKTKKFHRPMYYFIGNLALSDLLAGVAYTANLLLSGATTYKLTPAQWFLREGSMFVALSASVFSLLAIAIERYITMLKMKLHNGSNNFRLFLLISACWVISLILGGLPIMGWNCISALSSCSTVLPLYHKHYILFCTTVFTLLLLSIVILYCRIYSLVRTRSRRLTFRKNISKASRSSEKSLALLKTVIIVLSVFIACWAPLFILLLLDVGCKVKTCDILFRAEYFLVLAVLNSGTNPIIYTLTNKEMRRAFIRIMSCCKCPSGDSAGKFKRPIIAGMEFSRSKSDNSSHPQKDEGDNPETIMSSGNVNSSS

For the compound `O=C(Cn1cncn1)N[C@@H](CCCNC(=O)OCc1ccccc1)C(=O)Nc1ccc(Oc2ccc(F)cc2)cc1` [Compound 165, (S)-benzyl 4-(2-(1H-1,2,4-triazol-1-yl)acetamido)-5-(4-(4-fluorophenoxy)phenylamino)-5-oxopentylcarbamate], the pIC50 was no less than 6.52.

In the case of `O=C(Nc1ccc(Oc2ccc(F)cc2)cc1)[C@@H]1C[C@@H](Cc2ccc(F)cc2Cl)CN1C(=O)Cn1ccnn1` [Compound 2, (2S,4R)-1-(2-(1H-1,2,3-triazol-1-yl)acetyl)-4-(2-chloro-4-fluorobenzyl)-N-(4-(4-fluorophenoxy)phenyl)pyrrolidine-2-carboxamide], the pIC50 was no less than 6.52.

As for `O=C(Cc1c[nH]c2ccc(F)cc12)N[C@@H](COCc1ccccc1)C(=O)Nc1ccc(Oc2ccc(F)cc2)cc1` [Compound 212, (S)-3-(benzyloxy)-2-(2-(5-fluoro-1H-indol-3-yl)acetamido)-N-(4-(4-fluorophenoxy)phenyl)propanamide], the negative logarithm of the IC50 (pIC50) is no less than 6.52.

In the case of `O=C(NC(COCc1ccccc1)C(=O)Nc1ccc(Oc2ccccc2)cc1)c1ccnc2ccccc12` (stereo not shown) [Compound 365, N-(2-oxo-1-{[(phenylmethyl)oxy]methyl}-2-{[4-(phenyloxy)phenyl]amino}ethyl)quinoline-4-carboxamide], the pIC50 was less than 6.00.

As for `CC(=O)OCC(=O)NC(COCc1ccccc1)C(=O)Nc1ccc(Oc2ccccc2)cc1` (stereo not shown) [Compound 388, 2-oxo-2-[(2-oxo-1-{[(phenylmethyl)oxy]methyl}-2-{[4-(phenyloxy)phenyl]amino}ethyl)amino]ethyl acetate], the negative logarithm of the IC50 (pIC50) is less than 6.00.

For `O=C(Nc1ccc(Oc2ccc(F)cc2)cc1)[C@@H]1C[C@@H](Cc2ccc(Cl)s2)CN1C(=O)Cn1ccnn1` [Compound 65, (2S,4S)-1-(2-(1H-1,2,3-triazol-1-yl)acetyl)-4-((5-chlorothien-2-yl)methyl)-N-(4-(4-fluorophenoxy)phenyl)pyrrolidine-2-carboxamide], the pIC50 is no less than 6.52.

As to `O=C(Nc1ccc(Oc2ccc(F)cc2)cc1)[C@@H]1C[C@@H](Cc2ccc(Cl)cc2Cl)CN1C(=O)Cn1cncn1` [Compound 180, (2S,4R)-1-(2-(1H-1,2,4-triazol-1-yl)acetyl)-4-(2,4-dichlorobenzyl)-N-(4-(4-fluorophenoxy)phenyl)pyrrolidine-2-carboxamide], the pIC50 was no less than 6.52.

`COc1ccc(CCCC(=O)NC(COCc2ccccc2)C(=O)Nc2ccc(Oc3ccccc3)cc2)cc1OC` (stereo not shown) [Compound 320, 4-[3,4-bis(methyloxy)phenyl]-N-(2-oxo-1-{[(phenylmethyl)oxy]methyl}-2-{[4-(phenyloxy)phenyl]amino}ethyl)butanamide]: the negative-log IC50 (pIC50) was less than 6.00.

Regarding `COCCC(=O)NC(COCc1ccccc1)C(=O)Nc1ccc(Oc2ccccc2)cc1` (stereo not shown) [Compound 337, N-(2-oxo-1-{[(phenylmethyl)oxy]methyl}-2-{[4-(phenyloxy)phenyl]amino}ethyl)-3-methoxypropanamide], the pIC50 was less than 6.00.

For `COc1cccc(C[C@@H]2C[C@@H](C(=O)Nc3ccc(Oc4ccc(F)cc4)cc3)N(C(=O)Cn3cncn3)C2)c1` [Compound 70, (2S,4R)-1-(2-(1H-1,2,4-triazol-1-yl)acetyl)-N-(4-(4-fluorophenoxy)phenyl)-4-(3-methoxybenzyl)pyrrolidine-2-carboxamide], the pIC50 was no less than 6.52.

Consider `O=C(NC(COCc1ccccc1)C(=O)Nc1ccc(Oc2ccccc2)cc1)c1cccc(O)n1` (stereo not shown) [Compound 358, 6-hydroxy-N-(2-oxo-1-{[(phenylmethyl)oxy]methyl}-2-{[4-(phenyloxy)phenyl]amino}ethyl)pyridine-2-carboxamide], for which the pIC50 was less than 6.00.

As to `O=C(CN1CCC(N2CCCC2)CC1)N[C@@H](COCc1ccccc1)C(=O)Nc1ccc(Oc2ccc(F)cc2)cc1` [Compound 43, (S)-3-(benzyloxy)-N-(4-(4-fluorophenoxy)phenyl)-2-(2-(4-(pyrrolidin-1-yl)piperidin-1-yl)acetamido)propanamide], the pIC50 was less than 6.00.

With `O=C(Nc1ccc(Oc2ccc(F)cc2)cc1)[C@@H]1C[C@@H](Cc2ccc(F)cc2)CN1C(=O)Cn1nccn1` [Compound 50, (2S,4R)-1-(2-(2H-1,2,3-triazol-2-yl)acetyl)-4-(4-fluorobenzyl)-N-(4-(4-fluorophenoxy)phenyl)pyrrolidine-2-carboxamide], the pIC50 was no less than 6.52.

`O=C(Cn1nccn1)N[C@@H](COCc1ccccc1)C(=O)Nc1ccc(Oc2ccc(F)cc2)cc1` [Compound 138, (S)-2-(2-(2H-1,2,3-triazol-2-yl)acetamido)-3-(benzyloxy)-N-(4-(4-fluorophenoxy)phenyl)propanamide]: the pIC50 was no less than 6.52.

For `O=C(Cc1ccccc1)N[C@@H](COCc1ccccc1)C(=O)Nc1ccc(Oc2ccc(F)cc2)cc1` [Compound 249, (S)-3-(benzyloxy)-N-(4-(4-fluorophenoxy)phenyl)-2-(2-phenylacetamido)propanamide], the pIC50 is 6.00 to 6.52.

For the compound `Cc1cc(F)ccc1C[C@@H]1C[C@@H](C(=O)Nc2ccc(Oc3ccc(F)cc3)cc2)N(C(=O)Cn2nccn2)C1` [Compound 7, (2S,4R)-1-(2-(2H-1,2,3-triazol-2-yl)acetyl)-4-(4-fluoro-2-methylbenzyl)-N-(4-(4-fluorophenoxy)phenyl)pyrrolidine-2-carboxamide], the pIC50 is no less than 6.52.

`COc1ccc(C(=O)NC(COCc2ccccc2)C(=O)Nc2ccc(Oc3ccccc3)cc2)c(C)c1` (stereo not shown) [Compound 309, 2-methyl-4-(methyloxy)-N-(2-oxo-1-{[(phenylmethyl)oxy]methyl}-2-{[4-(phenyloxy)phenyl]amino}ethyl)benzamide]: the pIC50 is less than 6.00.

As to `CC(=O)CCC(=O)NC(COCc1ccccc1)C(=O)Nc1ccc(Oc2ccccc2)cc1` (stereo not shown) [Compound 347, 4-oxo-N-(2-oxo-1-{[(phenylmethyl)oxy]methyl}-2-{[4-(phenyloxy)phenyl]amino}ethyl)pentanamide], the pIC50 is less than 6.00.

As to `Cc1ccoc1C(=O)NC(COCc1ccccc1)C(=O)Nc1ccc(Oc2ccccc2)cc1` (stereo not shown) [Compound 401, 3-methyl-N-(2-oxo-1{[(phenylmethyl)oxy]methyl}-2-{[4-(phenyloxy)phenyl]amino}ethyl)furan-2-carboxamide], the pIC50 was less than 6.00.

In the case of `CSc1ccc(C(=O)NC(COCc2ccccc2)C(=O)Nc2ccc(Oc3ccccc3)cc2)cc1` (stereo not shown) [Compound 306, 4-(methylthio)-N-(2-oxo-1-{[(phenylmethyl)oxy]methyl}-2-{[4-(phenyloxy)phenyl]amino}ethyl)benzamide], the pIC50 is less than 6.00.

Turning to `COCCN1CCN(CC(=O)N2C[C@H](Cc3ccccc3)C[C@H]2C(=O)Nc2ccc(Oc3ccc(F)cc3)cc2)CC1` [Compound 100, (2S,4R)-4-benzyl-N-(4-(4-fluorophenoxy)phenyl)-1-(2-(4-(2-methoxyethyl)piperazin-1-yl)acetyl)pyrrolidine-2-carboxamide], the pIC50 is no less than 6.52.

For `O=C(Nc1ccc(Oc2ccc(F)cc2)cc1)[C@@H]1C[C@@H](Cc2ccc(F)cc2F)CN1C(=O)Cn1ccnn1` [Compound 267, (2S,4R)-1-(2-(1H-1,2,3-triazol-1-yl)acetyl)-4-(2,4-difluorobenzyl)-N-(4-(4-fluorophenoxy)phenyl)pyrrolidine-2-carboxamide], the negative-log IC50 (pIC50) is no less than 6.52.

For `O=C(CSc1ncccn1)NC(COCc1ccccc1)C(=O)Nc1ccc(Oc2ccccc2)cc1` (stereo not shown) [Compound 331, N-(2-oxo-1-{[(phenylmethyl)oxy]methyl}-2-{[4-(phenyloxy)phenyl]amino}ethyl)-2-(pyrimidin-2-ylthio)acetamide], the pIC50 was less than 6.00.

For the compound `CO[C@H](C(=O)NC(COCc1ccccc1)C(=O)Nc1ccc(Oc2ccccc2)cc1)c1ccccc1` (stereo partly drawn) [Compound 381, N-(2-oxo-1-{[(phenylmethyl)oxy]methyl}-2-{[4-(phenyloxy)phenyl]amino}ethyl)-2S-methoxy-2-phenylacetamide], the pIC50 was less than 6.00.

Take `O=C(Nc1ccc(Oc2ccc(F)cc2)cc1)[C@@H]1C[C@@H](Cc2c(F)cc(F)cc2F)CN1C(=O)Cn1nccn1` [Compound 169, (2S,4R)-1-(2-(2H-1,2,3-triazol-2-yl)acetyl)-N-(4-(4-fluorophenoxy)phenyl)-4-(2,4,6-trifluorobenzyl)pyrrolidine-2-carboxamide]: the pIC50 was no less than 6.52.

For `CCOCCN1CCN(CC(=O)N[C@@H](COCc2ccccc2)C(=O)Nc2ccc(Oc3ccc(F)cc3)cc2)CC1` [Compound 242, (S)-3-(benzyloxy)-N-(4-(4-fluorophenoxy)phenyl)-2-(2-(4-(2-ethoxyethyl)piperazin-1-yl)acetamido)propanamide], the pIC50 is 6.00 to 6.52.

With `CN(C)c1ccc(CC(=O)N2C[C@H](Cc3ccccc3)C[C@H]2C(=O)Nc2ccc(Oc3ccc(F)cc3)cc2)cc1` [Compound 35, (2S,4R)-4-benzyl-1-(2-(4-(dimethylamino)phenyl)acetyl)-N-(4-(4-fluorophenoxy)phenyl)pyrrolidine-2-carboxamide], the pIC50 was no less than 6.52.

For the compound `O=C(CCc1cnc[nH]1)N[C@@H](COCc1ccccc1)C(=O)Nc1ccc(Oc2ccc(F)cc2)cc1` [Compound 207, (S)-2-(3-(1H-imidazol-5-yl)propanamido)-3-(benzyloxy)-N-(4-(4-fluorophenoxy)phenyl)propanamide], the pIC50 is no less than 6.52.

Regarding `O=C(Cc1cnc[nH]1)N[C@@H](CCCc1ccccc1)C(=O)Nc1ccc(Oc2ccccc2)cc1` [Compound 1, (S)-2-(2-(1H-imidazol-5-yl)acetamido)-5-phenyl-N-(4-phenoxyphenyl)pentanamide], the pIC50 was no less than 6.52.

In the case of `O=C(NC(COCc1ccccc1)C(=O)Nc1ccc(Oc2ccccc2)cc1)c1ccc([N+](=O)[O-])o1` (stereo not shown) [Compound 326, 5-nitro-N-(2-oxo-1-{[(phenylmethyl)oxy]methyl}-2-{[4-(phenyloxy)phenyl]amino}ethyl)furan-2-carboxamide], the pIC50 is no less than 6.52.

On to `O=C(Nc1ccc(Oc2ccc(F)cc2)cc1)[C@@H]1C[C@@H](Cc2ccccc2Cl)CN1C(=O)Cn1nccn1` [Compound 56, (2S,4R)-1-(2-(2H-1,2,3-triazol-2-yl)acetyl)-4-(2-chlorobenzyl)-N-(4-(4-fluorophenoxy)phenyl)pyrrolidine-2-carboxamide], for which the pIC50 was no less than 6.52.
